# Measurements taken from patent US9399625B2, “Acridone compounds” (Oregon Health & Science University, priority 2006, dated 2016).
# pIC50: −log10 of the molar value. “Also recorded” adds a separate entry of the source. Like-named read-outs stand apart in the source and are kept apart here.
# Key:
# MDR P. falciparum Dd2 = assay: Fixed-ratio combination (isobologram) with quinoline antimalarials, Dd2; assay type: cell-based
# Protocol: In one embodiment, synergism is assessed herein using fixed-ratio combinations that provide information over a wide range of drug concentrations. […] If these stock solutions were termed Drug A and Drug B, then six final stock solutions were prepared from this initial stock: Drug A alone, Drug B alone, and volume:volume mixtures of Drug A and B in the following ratios: 4:1, 3:2, 2:3, and 1:4. Two-fold dilutions of each of the six final stock solutions were done robotically across a 96-well plate in quadruplicate. Subsequent steps were typical of standard drug-susceptibility methods. […] The data pointed from all six curves were then analyzed using Calcusyn software (commercially available from BioSoft, Cambridge, UK) for determination of synergy. Output from this analysis included FIC values used to plot isobolograms as well as a rigorously determined synergy index, termed the combination index (CI) (Calcusyn). FIC50 isobolograms, CI's and tabulation of IC90 component drug concentrations were reported.
# The combinations of the acridones T3.5 and T2 with quinine were assessed for synergism.
# FIG. 6 is an isobologram charting the efficacy of quinine in combination with T3.5 in vitro against CQ-sensitive (D6) and MDR (Dd2) P. falciparum.
# [1] = tested on: CQ-sensitive D6 strain of P. falciparum; assay: In vitro antimalarial activity, SYBR Green MSF assay, D6; assay type: cell-based; details: Plasmodium falciparum, D6
# Description: This example describes the screening of disclosed antimalarial acridones against the CQ-sensitive D6 strain and the MDR Dd2 strain of P. falciparum for in vitro antimalarial activity.
# [2] = Metabolic stability and fate in hepatic S9 fraction with NADPH; assay type: in vitro ADME, murine; details: 50 μM, NADPH 1 mM, 10, 30 and 60 min
# Protocol: This example investigates the metabolic stability and fate of T3.5 in the presence of NADPH and a murine hepatic S9 fraction. Hepatic S-9 fractions were incubated with 50 μM T3.5 in the presence of NADPH (1 mM) for 10, 30 and 60 min. HPLC was conducted with a Hypersil Gold column that is stable at high pH. […] The full scan mass spectrum had the isotopic ratio expected for the chlorine substituted acridone ring. […] The two unresolved peaks most likely represent de-ethylation of the tertiary amine on each side chain.
# A second de-ethylation also occurred with the prolonged incubation as evidenced by the peak at 17.5 min when monitored at m/z 388.1 (loss of m/z=56). Another dealkylated metabolite was monitored at m/z 345.1 and corresponds to the loss of the triethylamine side chain (loss of m/z=99) from the acridone ring. The dealkylation could occur from either the aryl ether side chain or from the acridone ring nitrogen. The later would result in the production of the active compound T2. […] In addition to the dealkylated products, a hydroxylated metabolite was also detected by monitoring at m/z 460.2 (addition of m/z=16). The hydroxylation could occur on the acridone ring or on one of the primary carbons on the ethylamine side chains. Further MS/MS experiments will help establish the site of hydroxylation.
compound,measurement,setting,value
"CCN(CC)CCOc1ccc2c(=O)c3ccc(Cl)cc3n(CCN(CC)CC)c2c1 [T3.5, 3-(2-diethylaminoethoxy)-6-chloro-10-(2-diethylaminoethyl)-9-acridone]",interaction with CQ,MDR P. falciparum Dd2; isobolar analysis,synergistic
same,interaction with amodiaquine,MDR P. falciparum Dd2; isobolar analysis,synergistic
same,interaction with mefloquine,MDR P. falciparum Dd2; isobolar analysis,not
same,interaction with quinine,MDR P. falciparum Dd2; isobolar analysis,synergism; also recorded: synergistic
same,T3.5 concentration giving 90% growth inhibition in combination,MDR P. falciparum Dd2; with 7-70 nM quinine,20 to 200 nM
same,pIC50,"[1]; Table 2, average of 4 independent experiments, read-out: IC50, D6",7.30
same,pIC50,"[1]; Table 4, read-out: IC50 P. falciparum D6",7.36
same,most abundant metabolites,[2],de-ethylated products
